Values of other authors as cited in patent US20030198684A1 (priority 2002, published 2003).
Like-named read-outs stand apart in the source and are kept apart here.

Legend:
[1] = body builders
[2] = in vivo
[3] = patients on dialysis, compared with placebo
[4] = system: young female rats; conditions: constant infusion
[5] = for waking erection: Asian hypogonadal men; for sexual interest and activity, spontaneous erection: Caucasian hypogonadal men
[6] = system: prostate and seminal vesicle weights
[7] = system: levator ani muscles
[8] = supplementation
[9] = target: T1, aromatase (Homo sapiens, UniProt P11511); conditions: compared with chrysin, AG and ANG
T1 sequence (P11511 1-503): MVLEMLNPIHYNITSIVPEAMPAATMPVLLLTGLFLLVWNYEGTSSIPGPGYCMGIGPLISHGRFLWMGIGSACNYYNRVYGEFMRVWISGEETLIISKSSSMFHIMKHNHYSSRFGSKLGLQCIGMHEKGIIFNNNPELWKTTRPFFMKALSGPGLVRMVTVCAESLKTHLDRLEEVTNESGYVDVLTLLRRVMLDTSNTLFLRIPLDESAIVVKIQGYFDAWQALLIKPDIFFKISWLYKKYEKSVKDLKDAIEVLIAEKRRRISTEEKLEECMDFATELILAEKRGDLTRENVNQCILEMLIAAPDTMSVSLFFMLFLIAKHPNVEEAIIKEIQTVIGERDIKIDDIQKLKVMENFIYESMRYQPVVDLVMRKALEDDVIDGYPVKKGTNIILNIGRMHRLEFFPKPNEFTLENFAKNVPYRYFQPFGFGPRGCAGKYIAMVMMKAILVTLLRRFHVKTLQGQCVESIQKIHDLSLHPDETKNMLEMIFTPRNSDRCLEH

[10] = supplementation; remark: listed apart in the source
[11] = in vivo; remark: listed apart in the source
[12] = 300 mg/wk for six weeks; TE: shoulders; ND: shoulders and chest
[13] = HIV-infected men, pharmacological doses

Question: What does the source list for `C[C@]12CC[C@H](O)CC1=CC[C@@H]1[C@@H]2CC[C@]2(C)C(=O)CC[C@@H]12` [DHEA, dehydro-epiandrosterone]?
Answer: plasma testosterone (50 mg dose of DHEA): restored plasma testosterone to levels similar to those observed in young women; delta 5-androstenediol (50 mg or 200 mg DHEA): small increase; plasma delta 4-androstenedione increase (50 mg or 200 mg DHEA): significant and dose dependent; plasma estrogens, particularly estradiol (50 mg or 200 mg DHEA): significant and dose dependent increase; plasma testosterone (200 mg dose of DHEA): important increase of plasma testosterone, slightly below the levels observed in normal men; increase of plasma dihydrotestosterone levels (both doses of DHEA): small at both doses

Question: With `C[C@]12CC[C@H]3[C@@H](CCC4=CC(=O)CC[C@@H]43)[C@@H]1CC[C@@H]2O` [nandrolone, 19-nor-testosterone] as the compound, how does the “decrease in HDL-choresterol and diastolic blood pressure” value [1] read?
Answer: The value was 25-27%.

Question: And the azoospermia [2]?
Answer: The azoospermia was “azoospermia (lack of sperm) associated with nandrolone use”.

Question: What about the lean body mass [3] of the same compound?
Answer: Its lean body mass is “increased significantly”.

Question: And the energy expenditure [4]?
Answer: The energy expenditure was “increased energy expenditure”.

Question: What does the source list for `C[C@]12CC[C@H]3[C@@H](CCC4=CC(=O)CC[C@@]43C)[C@@H]1CC[C@@H]2O` [testosterone]?
Answer: lipid deposition or heat production [4]: did not have a significant effect; proportion of protein in the body composition [4]: increased

Question: With `C[C@]12CC[C@H]3[C@@H](CC=C4C[C@@H](O)CC[C@@]43C)[C@@H]1CC[C@@H]2O` [5-androstenediol] as the compound, how does the “lipid deposition or heat production” value [4] read?
Answer: Its value is “did not have a significant effect”.

Question: And the “proportion of protein in the body composition” value [4]?
Answer: The value was “increased”.

Question: Which results are given for `C[C@@H]1CC2=CC(=O)CC[C@@H]2[C@H]2CC[C@]3(C)[C@@H](O)CC[C@H]3[C@@H]21` [MENT, 7α-methyl-19-nor-testosterone]?
Answer: waking erection [5]: increased waking erection; sexual interest and activity, spontaneous erection [5]: significant increases; androgenic potency relative to testosterone [6]: four- to five-times more androgenic than testosterone; anabolic potency relative to testosterone [7]: ten-times as potent as testosterone

Question: With `C[C@]12CCC(=O)C=C1CC[C@@H]1[C@@H]2CC[C@]2(C)C(=O)CC[C@@H]12` [4-androstenedione] as the compound, how does the serum testosterone [8] read?
Answer: Its serum testosterone is “produced elevations in serum testosterone”.

Question: For `COc1ccc(-c2coc3cc(O)cc(O)c3c2=O)cc1` [Biochanin A, 5,7-dihydroxy-4′-methoxyisoflavone], which “aromatase inhibition (in words)” value [9] is on record?
Answer: The value was “inhibited aromatase, but to a lesser degree”.

Question: For `C[C@]12CC[C@H]3[C@@H](CCC4=C[C@@H](O)CC[C@@]43C)[C@@H]1CC[C@@H]2O` [4-androstenediol], which “urine testosterone concentration relative to 4androstenedione” value [10] is on record?
Answer: The value was 10 fold.

Question: And the “human serum testosterone levels” value [11]?
Answer: Its value is “produce elevations in human serum testosterone levels”.

Question: For `CCCCCCCCCC(=O)O[C@H]1CC[C@H]2[C@@H]3CCC4=CC(=O)CC[C@@H]4[C@H]3CC[C@]12C` [nandrolone decanoate, 19-nor-testosterone decanoate], which “body circumferences (of fifteen)” value [12] is on record?
Answer: Its value is “significant increases”.

Question: And the “total weight, lean body mass, body cell mass, muscle size, and strength” value [13]?
Answer: The value was “significant gains”.

Question: Which “body circumferences (of fifteen)” value [12] does the source give for `CCCCCCC(=O)O[C@H]1CC[C@H]2[C@@H]3CCC4=CC(=O)CC[C@]4(C)[C@H]3CC[C@]12C` [TE, testosterone enanthate] here?
Answer: Its value is “significant increases”.

Question: What about the waking erection [5] of the same compound?
Answer: Its waking erection is “increased waking erection”.

Question: And the “sexual interest and activity, spontaneous erection” value [5]?
Answer: The value was “significant increases”.
